Experimental data as given in patent US9326986B2, “Quinazolinone, quinolone and related analogs as sirtuin modulators” (GLAXOSMITHKLINE LLC, priority 2008, dated 2016).

Target: T1, SIRT1 (Homo sapiens, UniProt Q96EB6)
T1 sequence (Q96EB6 1-747): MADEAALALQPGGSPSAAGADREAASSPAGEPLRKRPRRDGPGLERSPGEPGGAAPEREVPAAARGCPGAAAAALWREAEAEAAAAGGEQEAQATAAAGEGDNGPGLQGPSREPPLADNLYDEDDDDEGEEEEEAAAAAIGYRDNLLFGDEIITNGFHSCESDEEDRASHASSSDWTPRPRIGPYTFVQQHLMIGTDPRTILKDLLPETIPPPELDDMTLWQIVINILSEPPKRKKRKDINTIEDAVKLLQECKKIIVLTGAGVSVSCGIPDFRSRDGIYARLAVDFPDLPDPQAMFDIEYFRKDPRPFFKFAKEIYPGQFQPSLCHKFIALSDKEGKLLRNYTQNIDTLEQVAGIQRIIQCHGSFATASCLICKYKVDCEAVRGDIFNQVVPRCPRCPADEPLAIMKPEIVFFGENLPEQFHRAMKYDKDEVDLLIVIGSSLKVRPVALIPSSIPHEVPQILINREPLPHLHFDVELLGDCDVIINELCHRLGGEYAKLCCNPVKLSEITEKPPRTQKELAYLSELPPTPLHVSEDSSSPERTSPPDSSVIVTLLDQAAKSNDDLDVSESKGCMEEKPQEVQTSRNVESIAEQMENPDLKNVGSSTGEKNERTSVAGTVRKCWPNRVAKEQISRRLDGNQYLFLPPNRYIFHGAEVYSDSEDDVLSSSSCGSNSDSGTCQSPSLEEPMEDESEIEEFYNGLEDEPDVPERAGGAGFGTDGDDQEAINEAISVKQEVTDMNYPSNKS
Test: Mass spectrometry based assay to identify modulators of SIRT1 activity (deacetylation of p53-based acetylated peptide)
Format: biochemical
Conditions: 10 nM SIRT1, 0.5 μM peptide substrate, 120 μM βNAD+, 25 minutes at 25° C.; for EC1.5 μM: SIRT1 activation
Source text: A mass spectrometry based assay was used to identify modulators of SIRT1 activity. The mass spectrometry based assay utilizes a peptide having 20 amino acid residues as follows: Ac-EE-K(biotin)-GQSTSSHSK(Ac)NleSTEG-K(5TMR)-EE-NH2 (SEQ ID NO: 1) wherein K(Ac) is an acetylated lysine residue and Nle is a norleucine. The peptide is labeled with the fluorophore 5TMR (excitation 540 nm/emission 580 nm) at the C-terminus. The sequence of the peptide substrate is based on p53 with several modifications. In addition, the methionine residue naturally present in the sequence was replaced with the norleucine because the methionine may be susceptible to oxidation during synthesis and purification.
The mass spectrometry assay is conducted as follows: 0.5 μM peptide substrate and 120 μM βNAD^+ is incubated with 10 nM SIRT1 for 25 minutes at 25° C. in a reaction buffer (50 mM Tris-acetate pH 8, 137 mM NaCl, 2.7 mM KCl, 1 mM MgCl2, 5 mM DTT, 0.05% BSA). Test compounds may be added to the reaction as described above. […] After the 25 minute incubation with SIRT1, 10 μL of 10% formic acid is added to stop the reaction. Reactions are sealed and frozen for later mass spec analysis. Determination of the mass of the substrate peptide allows for precise determination of the degree of acetylation (i.e. starting material) as compared to deacetylated peptide (product).
A control for inhibition of sirtuin activity is conducted by adding 1 μL of 500 mM nicotinamide as a negative control at the start of the reaction (e.g., permits determination of maximum sirtuin inhibition). A control for activation of sirtuin activity is conducted using 10 nM of sirtuin protein, with 1 μL of DMSO in place of compound, to determine the amount of deacetylation of the substrate at a given timepoint within the linear range of the assay. This timepoint is the same as that used for test compounds and, within the linear range, the endpoint represents a change in velocity.
For the above assay, SIRT1 protein was expressed and purified as follows. […] The protein was expressed by induction with 1 mM IPTG as an N-terminal His-tag fusion protein at 18° C. overnight and harvested at 30,000×g. Cells were lysed with lysozyme in lysis buffer (50 mM Tris-HCl, 2 mM Tris[2-carboxyethyl]phosphine (TCEP), 10 μM ZnCl2, 200 mM NaCl) and further treated with sonication for 10 min for complete lysis. The protein was purified over a Ni-NTA column (Amersham) and fractions containing pure protein were pooled, concentrated and run over a sizing column (Sephadex S200 26/60 global). The peak containing soluble protein was collected and run on an Ion-exchange column (MonoQ). Gradient elution (200 mM-500 mM NaCl) yielded pure protein. This protein was concentrated and dialyzed against dialysis buffer (20 mM Tris-HCl, 2 mM TCEP) overnight. The protein was aliquoted and frozen at −80° C. until further use.
Sirtuin modulating compounds that activated SIRT1 were identified using the assay described above and are shown below in Tables 1 and 2. The EC1.5 values for the activating compounds are represented by A (EC1.5<1.0 μM), B (EC1.5 1-25 μM), C (EC1.5>25 μM). The percent maximum fold activation is represented by A (Fold activation>200%) or B (Fold Activation<200%).

Row | Structure (SMILES) | % Fold Act. (percent maximum fold activation) | EC1.5 μM
1 | Cn1c(-c2ccc(OC(F)(F)F)cc2)nc2c(NC(=O)c3cnccn3)cccc2c1=O [Compound 252] | B (Fold Activation<200%) | C (EC1.5>25 μM)
2 | Cn1c(C2CCC2)nc2c(C(=O)Nc3ccccn3)cccc2c1=O [Compound 224] | B (Fold Activation<200%) | C (EC1.5>25 μM)
3 | Cn1ccc(-c2nc3c(C(=O)Nc4ccccn4)cccc3c(=O)n2C)n1 [Compound 228] | B (Fold Activation<200%) | B (EC1.5 1-25 μM)
4 | Cn1c(-c2ccccc2C(F)(F)F)nc2c(C(=O)Nc3ccccn3)cccc2c1=O [Compound 212, 3-methyl-4-oxo-N-(pyridin-2-yl)-2-(2-(trifluoromethyl)phenyl)-3,4-dihydroquinazoline-8-carboxamide] | A (Fold activation>200%) | B (EC1.5 1-25 μM)
5 | O=C(Nc1cccc2c(=O)[nH]c(-c3ccccc3OC(F)(F)F)nc12)c1cnccn1 [Compound 318] | A (Fold activation>200%) | A (EC1.5<1.0 μM)
6 | Cn1c(-c2cccc(C(F)(F)F)c2)nc2c(NC(=O)c3cccc(OCC(O)CO)n3)cccc2c1=O (centres unmarked) [Compound 335] | A (Fold activation>200%) | A (EC1.5<1.0 μM)
7 | Cn1c(-c2cccc(C(F)(F)F)c2)nc2c(NC(=O)c3cocn3)cccc2c1=O [Compound 250] | B (Fold Activation<200%) | C (EC1.5>25 μM)
8 | Cn1c(-c2cccc(C(F)(F)F)c2)nc2c(C(=O)Nc3ccnc(N4CCOCC4)c3)cccc2c1=O [Compound 304] | A (Fold activation>200%) | A (EC1.5<1.0 μM)
9 | Cn1c(-c2ccccc2Cl)nc2c(C(=O)Nc3ccccn3)cccc2c1=O [Compound 242] | B (Fold Activation<200%) | B (EC1.5 1-25 μM)
10 | Cn1c(-c2cccc(C(F)(F)F)c2)nc2c(C(=O)Nc3nccs3)cccc2c1=O [Compound 205] | B (Fold Activation<200%) | B (EC1.5 1-25 μM)
11 | Cn1c(-c2cncnc2)nc2c(C(=O)Nc3ccccn3)cccc2c1=O [Compound 260] | B (Fold Activation<200%) | C (EC1.5>25 μM)
12 | Cc1cc(NC(=O)c2cccc3c(=O)n(C)c(-c4cccc(C(F)(F)F)c4)nc23)sn1 [Compound 296] | B (Fold Activation<200%) | B (EC1.5 1-25 μM)
13 | Cn1c(-c2cccc(C(F)(F)F)c2)nc2c(C(=O)Nc3cccnc3)cccc2c1=O [Compound 265] | A (Fold activation>200%) | B (EC1.5 1-25 μM)
14 | Cn1cncc1-c1nc2c(C(=O)Nc3ccccn3)cccc2c(=O)n1C [Compound 262] | B (Fold Activation<200%) | C (EC1.5>25 μM)
15 | Cn1c(-c2ncccn2)nc2c(NC(=O)c3cnccn3)cccc2c1=O [Compound 282] | B (Fold Activation<200%) | C (EC1.5>25 μM)
16 | Cn1c(-c2cccc(C(F)(F)F)c2)nc2c(C(=O)Nc3ccc(OCC(O)CO)cc3)cccc2c1=O (centres unmarked) [Compound 273] | A (Fold activation>200%) | A (EC1.5<1.0 μM)
17 | Cc1nc(C)c(-c2nc3c(NC(=O)c4cnccn4)cccc3c(=O)n2C)s1 [Compound 287, N-(2-(2,4-dimethylthiazol-5-yl)-3-methyl-4-oxo-3,4-dihydroquinazolin-8-yl)pyrazine-2-carboxamide] | A (Fold activation>200%) | B (EC1.5 1-25 μM)
18 | Cn1c(-c2cscn2)nc2c(NC(=O)c3cnccn3)cccc2c1=O [Compound 283] | B (Fold Activation<200%) | C (EC1.5>25 μM)
19 | Cn1c(-c2cccc(OC(F)F)c2)nc2c(C(=O)Nc3ccccn3)cccc2c1=O [Compound 326] | A (Fold activation>200%) | A (EC1.5<1.0 μM)
20 | O=C(Nc1cccc2c(=O)[nH]c(-c3ccccc3C(F)(F)F)nc12)c1cnccn1 [Compound 317] | A (Fold activation>200%) | A (EC1.5<1.0 μM)
21 | Cn1c(-c2cccnc2)nc2c(C(=O)Nc3ccccn3)cccc2c1=O [Compound 256] | B (Fold Activation<200%) | C (EC1.5>25 μM)

Next, values leading:

Row | % Fold Act. (percent maximum fold activation) | EC1.5 μM | Structure (SMILES)
22 | A (Fold activation>200%) | A (EC1.5<1.0 μM) | CCc1nnc(NC(=O)c2cccc3c(=O)cc(-c4cccc(C(F)(F)F)c4)[nH]c23)s1 [Compound 400]
23 | A (Fold activation>200%) | A (EC1.5<1.0 μM) | Cn1c(-c2cccc(C(F)(F)F)c2)nc2c(C(=O)Nc3cccc(OCC(O)CO)c3)cccc2c1=O (centres unmarked) [Compound 360]
24 | A (Fold activation>200%) | A (EC1.5<1.0 μM) | O=C(Nc1cccc2c(=O)cc(-c3cccc(C(F)(F)F)c3)[nH]c12)c1ccccn1 [Compound 408]
25 | A (Fold activation>200%) | A (EC1.5<1.0 μM) | O=C(Nc1ccncn1)c1cccc2c(=O)cc(-c3cccc(C(F)(F)F)c3)[nH]c12 [Compound 415]
26 | A (Fold activation>200%) | A (EC1.5<1.0 μM) | O=C(Nc1nccs1)c1cccc2c(=O)cc(-c3ccccc3C(F)(F)F)[nH]c12 [Compound 427]
27 | A (Fold activation>200%) | A (EC1.5<1.0 μM) | O=C(Nc1nccs1)c1cccc2c(=O)cc(-c3ccccc3OC(F)F)[nH]c12 [Compound 436]
28 | A (Fold activation>200%) | A (EC1.5<1.0 μM) | Cn1ccnc1C(=O)Nc1cccc2c(=O)cc(-c3cccc(C(F)(F)F)c3)[nH]c12 [Compound 420]
29 | A (Fold activation>200%) | B (EC1.5 1-25 μM) | O=C(NC1CCOCC1)c1cccc2c(=O)cc(-c3cccc(C(F)(F)F)c3)[nH]c12 [Compound 412]
30 | B (Fold Activation<200%) | A (EC1.5<1.0 μM) | O=C(Nc1cnccn1)c1cccc2c(=O)cc(-c3cccc(Cl)c3)[nH]c12 [Compound 434]
31 | A (Fold activation>200%) | A (EC1.5<1.0 μM) | O=C(Nc1cccnc1)c1cccc2c(=O)cc(-c3cccc(OC(F)F)c3)[nH]c12 [Compound 443]
